Among the data in patent US20060122222A1, “Heterocycle substituted carboxylic acids” (The Institutes for Pharmaceutical Discovery, LLC, priority 2004, published 2006) are melting point values, retold here.

Usually melting point stands for the temperature, or range, at which the solid turns liquid.

For the molecule `O=C(O)[C@@H]1CSC(c2ccc(-c3ccc(-c4c(Cc5ccccc5)oc5ccccc45)cc3)cc2)N1` (mixture of isomers) [Example 38, (2RS, 4R)-2-[4′-(2-Benzylbenzofuran-3-yl)biphen-4-yl]thiazolidine-4-carboxylic acid], the melting point is 148 °C (dec.).

For `O=C(O)[C@@H]1CSC(c2ccc(-c3ccc(-n4ccc5ccccc54)cc3)cc2)N1` (stereo in doubt) [Example 27, 2-(4′-Indol-1-yl-biphen-4-yl)thiazolidine-4-carboxylic acid], the melting point was 135 to 137 °C (dec.).

Regarding `O=C(O)C(=O)Nc1cc(-c2ccc(-c3cccc4c3oc3ccccc34)cc2)cn(Cc2ccccc2)c1=O` [Example 4, N-[1-Benzyl-5-(4-dibenzofuran-4-yl-phenyl)-2-oxo-1,2-dihydro-pyridin-3-yl]-oxalamic acid], the melting point was 220 to 223 °C.

`CCc1ccc(-c2sc(NC(=O)c3ccc(S(=O)(=O)N4CCCC4C(=O)O)cc3)nc2-c2ccc(Cl)cc2)cc1` (stereo not drawn) [Example 5, 1-{4-[4-(4-Chloro-phenyl)-5-(4-ethyl-phenyl)-thiazol-2-ylcarbamoyl]-benzenesulfonyl}-pyrrolidine-2-carboxylic acid] showed a melting point of 289 to 292 °C.

On to `O=C(O)CCNc1cc(-c2ccc(-c3cccc4c3oc3ccccc34)cc2)nc(Cc2ccccc2)n1` [Example 45, 3-[2-Benzyl-6-(4-dibenzofuran-4-yl-phenyl)-pyrimidin-4-ylamino]-propionic acid], for which the melting point is 205 °C (dec.).

As to `O=C(O)CCNc1cc(-c2ccc(-c3cccc4c3oc3ccccc34)cc2)nc(-c2ccccc2)n1` [Example 46, 3-[2-phenyl-6-(4-dibenzofuran-4-yl-phenyl)-pyrimidin-4-ylamino]-propionic acid], the melting point is 210 °C (dec.).
